Laboratory results taken from US10221171B2, “Oxathiazole thiazolium Hsp 70 inhibitors” (THE REGENTS OF THE UNIVERSITY OF CALIFORNIA, priority 2015, dated 2019).
Read-outs that look alike come from different tables or passages of the source.

Legend:
Format in all cases: cell-based
MCF-7 = assay: MTT cell viability assay, MCF-7; details: Homo sapiens, MTT, 72-hour incubation, read-out: IC50/μM MCF-7
MDA-MB-231 = assay: MTT cell viability assay, MDA-MB-231; details: Homo sapiens
MEF (C57BL/6) = assay: MTT cell viability assay, MEF (C57BL/6); details: Mus musculus
[1] = MTT, 72-hour incubation, read-out: IC50/μM MEF (C57BL/6)
[2] = 72 h, read-out: IC50/μM MEF (C57BL/6), MTT, 72-hour incubation
[3] = MDA-MB-231, 72 h, 72-hour incubation

Structure (SMILES): CCn1c(=O)/c(=C2\Sc3cc(Br)ccc3N2C)s/c1=C\c1scc[n+]1Cc1ccccc1OC(F)(F)F [JG-291]
- IC50 (MCF-7; MCF7): 0.14 ± 0.01 µM
- IC50 (MDA-MB-231; MDA-MB-231, 72-hour incubation): 0.14 ± 0.01 µM
- IC50 (MEF (C57BL/6); [1]): 2.3 ± 0.1 µM

Structure (SMILES): CCn1c(=O)/c(=C2\Sc3cc(OC)ccc3N2C)s/c1=C\c1scc[n+]1CCc1ccccc1C(F)(F)F [JG-377]
- IC50 (MCF-7; MCF7): 0.12 ± 0.01 µM
- IC50 (MDA-MB-231; MDA-MB-231, 72-hour incubation): 0.19 ± 0.03 µM
- IC50 (MEF (C57BL/6); [1]): > 10 µM

Structure (SMILES): CCn1c(=O)/c(=C2\Sc3cc(OC)ccc3N2C)s/c1=C\c1scc[n+]1CCc1ccccc1OC [JG-397]
- IC50 (MCF-7; MCF7): 0.08 ± 0.008 µM
- IC50 (MDA-MB-231; MDA-MB-231, 72-hour incubation): 0.083 ± 0.007 µM
- IC50 (MEF (C57BL/6); [1]): 1.3 ± 0.1 µM

Structure (SMILES): CCn1c(=O)/c(=C2\Sc3cc(SC)ccc3N2C)s/c1=C\c1scc[n+]1Cc1ccccc1C(=O)OC [JG-357]
- IC50 (MCF-7; MCF7): 0.25 ± 0.01 µM
- IC50 (MDA-MB-231; MDA-MB-231, 72-hour incubation): 0.14 ± 0.01 µM
- IC50 (MEF (C57BL/6); [1]): 3.5 ± 0.2 µM

Structure (SMILES): CCn1c(=O)/c(=C2\Sc3cc(C)ccc3N2C)s/c1=C\c1scc[n+]1CCc1ccccc1OC [JG-390]
- IC50 (MCF-7; MCF7): 0.31 ± 0.04 µM
- IC50 (MDA-MB-231; MDA-MB-231, 72-hour incubation): 0.12 ± 0.01 µM
- IC50 (MEF (C57BL/6); [1]): 1.2 ± 0.1 µM

Structure (SMILES): CCn1c(=O)/c(=C2\Sc3cc(C)ccc3N2C)s/c1=C\c1scc[n+]1CCc1ccccc1Cl [JG-380]
- IC50 (MCF-7; MCF7): 0.2 ± 0.02 µM
- IC50 (MDA-MB-231; MDA-MB-231, 72-hour incubation): 0.25 ± 0.03 µM
- IC50 (MEF (C57BL/6); [1]): 0.94 ± 0.03 µM

Structure (SMILES): CCn1c(=O)/c(=C2\Sc3cc(OC)ccc3N2C)s/c1=C\c1scc[n+]1Cc1ccccc1C [JG-302]
- IC50 (MCF-7; MCF7): 0.12 ± 0.01 µM
- IC50 (MDA-MB-231; MDA-MB-231, 72-hour incubation): 0.11 ± 0.01 µM
- IC50 (MEF (C57BL/6); [1]): 1.8 ± 0.05 µM

Structure (SMILES): CCn1c(=O)/c(=C2\Sc3cc(Cl)ccc3N2C)s/c1=C\c1scc[n+]1[C@@H](C)c1ccccc1 [JG-335]
- IC50 (MCF-7; MCF7): 0.14 ± 0.02 µM
- IC50 (MDA-MB-231; MDA-MB-231, 72-hour incubation): 0.11 ± 0.01 µM
- IC50 (MEF (C57BL/6); [1]): 1.4 ± 0.1 µM

Structure (SMILES): CCn1c(=O)/c(=C2\Sc3cc(C)ccc3N2C)s/c1=C\c1scc[n+]1C(C)c1ccccc1 (stereo not drawn) [JG-318]
- IC50 (MCF-7; MCF7): 0.16 ± 0.03 µM
- IC50 (MDA-MB-231; MDA-MB-231, 72-hour incubation): 0.11 ± 0.01 µM
- IC50 (MEF (C57BL/6); [1]): 1.1 ± 0.1 µM

Structure (SMILES): CCn1c(=O)/c(=C2\Sc3cc(Cl)ccc3N2C)s/c1=C\c1scc[n+]1CCc1ccccc1OC [JG-389]
- IC50 (MCF-7; MCF7): 0.86 ± 0.08 µM
- IC50 (MDA-MB-231; MDA-MB-231, 72-hour incubation): 0.27 ± 0.01 µM
- IC50 (MEF (C57BL/6); [1]): 2.4 ± 0.1 µM

Structure (SMILES): CCn1c(=O)/c(=C2\Sc3cc(C(C)C)ccc3N2C)s/c1=C\c1scc[n+]1Cc1ccccc1Cl [JG-323]
- IC50 (MCF-7; MCF7): 0.12 ± 0.01 µM
- IC50 (MDA-MB-231; MDA-MB-231, 72-hour incubation): 0.19 ± 0.01 µM
- IC50 (MEF (C57BL/6); [1]): 0.53 ± 0.02 µM

Structure (SMILES): CCn1c(=O)/c(=C2\Sc3cc(Cl)ccc3N2C)s/c1=C\c1scc[n+]1Cc1csc(NC(C)=O)n1 [JG-261]
- IC50 (MCF-7; MCF7): > 5 µM
- IC50 (MDA-MB-231; MDA-MB-231, 72-hour incubation): > 20 µM
- IC50 (MEF (C57BL/6); [2]): 4.2 ± 0.6 µM

Structure (SMILES): CCn1c(=O)/c(=C2\Sc3ccc(C)cc3N2C)s/c1=C\c1scc[n+]1Cc1ccccc1Cl [JG-365]
- IC50 (MCF-7; MCF7): 0.11 ± 0.01 µM
- IC50 (MDA-MB-231; MDA-MB-231, 72-hour incubation): 0.16 ± 0.02 µM
- IC50 (MEF (C57BL/6); [1]): 0.42 ± 0.02 µM

Structure (SMILES): CCc1ccc2c(c1)S/C(=c1/s/c(=C\c3scc[n+]3Cc3ccccc3SC(F)(F)F)n(CC)c1=O)N2C [JG-344]
- IC50 (MCF-7; MCF7): 0.087 ± 0.007 µM
- IC50 (MDA-MB-231; MDA-MB-231, 72-hour incubation): 0.17 ± 0.01 µM
- IC50 (MEF (C57BL/6); [1]): 0.46 ± 0.03 µM

Structure (SMILES): CCn1c(=O)/c(=C2\Sc3cc(F)ccc3N2C)s/c1=C\c1scc[n+]1Cc1ccccc1CO [JG-330]
- IC50 (MCF-7; MCF7): 1.08 ± 0.14 µM
- IC50 (MDA-MB-231; MDA-MB-231, 72-hour incubation): 1.93 ± 0.27 µM
- IC50 (MEF (C57BL/6); [1]): > 10 µM

Structure (SMILES): CCn1c(=O)/c(=C2\Sc3cc(OC)ccc3N2C)s/c1=C\c1scc[n+]1Cc1ccccc1OC [JG-352]
- IC50 (MCF-7; MCF7, 72 h): 0.076 ± 0.005 µM
- IC50 (MDA-MB-231; [3]): 0.062 ± 0.006 µM
- IC50 (MEF (C57BL/6); [2]): 0.77 ± 0.03 µM

Structure (SMILES): CCn1c(=O)/c(=C2\Sc3cc(SC)ccc3N2C)s/c1=C\c1scc[n+]1Cc1ccc(C(F)(F)F)o1 [JG-314]
- IC50 (MCF-7; MCF7): 0.57 ± 0.08 µM
- IC50 (MDA-MB-231; MDA-MB-231, 72-hour incubation): 0.25 ± 0.04 µM
- IC50 (MEF (C57BL/6); [1]): 4.8 ± 0.9 µM

Structure (SMILES): C=CCn1c(=O)/c(=C2\Sc3cc(C)ccc3N2C)s/c1=C\c1scc[n+]1Cc1ccccc1 [JG-341]
- IC50 (MCF-7; MCF7): 0.15 ± 0.01 µM
- IC50 (MDA-MB-231; MDA-MB-231, 72-hour incubation): 0.11 ± 0.01 µM
- IC50 (MEF (C57BL/6); [1]): 1.6 ± 0.1 µM

Structure (SMILES): CCn1c(=O)/c(=C2\Sc3cc(OC)ccc3N2C)s/c1=C\c1scc[n+]1Cc1ccccc1Cl [JG-301]
- IC50 (MCF-7; MCF7, 72 h): 0.048 ± 0.003 µM
- IC50 (MDA-MB-231; [3]): 0.033 ± 0.005 µM
- IC50 (MEF (C57BL/6); [2]): 0.66 ± 0.01 µM

Structure (SMILES): CCn1c(=O)/c(=C2\Sc3ccc(OC)cc3N2C)s/c1=C\c1scc[n+]1Cc1ccccc1SC(F)(F)F [JG-399]
- IC50 (MCF-7; MCF7): 0.2 ± 0.01 µM
- IC50 (MDA-MB-231; MDA-MB-231, 72-hour incubation): 0.11 ± 0.01 µM
- IC50 (MEF (C57BL/6); [1]): 3.1 ± 0.2 µM
